Experimental data from patent US20250313575A1, “MACROCYCLES AS LRRK2 INHIBITORS, PHARMACEUTICAL COMPOSITIONS, AND USES THEREOF” (Merck Sharp & Dohme LLC, priority 2022, published 2025).

Molecular target: GST-tagged truncated human mutant G2019S LRRK2 (Homo sapiens (Human), UniProt Q5S007, G2019S)
Assay: LRRK2 G2019S Km ATP LanthaScreen assay
Format: biochemical
Settings: G2019S LRRK2, 134 μM ATP (Km ATP), LRRKtide substrate
Procedure, shortened: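 TR-FRET assay with GST-tagged truncated human G2019S LRRK2 (1.25 nM), preincubated with compound 15 min, then reacted with fluorescein-LRRKtide and 134 μM ATP (Km) in Tris pH 8.5 buffer, 90 min, ambient temperature. Tb-anti-phospho-LRRKtide detection, 520/495 nm ratio; IC50 by 4-parameter logistic fit, top concentration 9.99 μM in DMSO, 10 points.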

Chain of GST-tagged truncated human mutant G2019S LRRK2 (Q5S007 970-2527 G2019S): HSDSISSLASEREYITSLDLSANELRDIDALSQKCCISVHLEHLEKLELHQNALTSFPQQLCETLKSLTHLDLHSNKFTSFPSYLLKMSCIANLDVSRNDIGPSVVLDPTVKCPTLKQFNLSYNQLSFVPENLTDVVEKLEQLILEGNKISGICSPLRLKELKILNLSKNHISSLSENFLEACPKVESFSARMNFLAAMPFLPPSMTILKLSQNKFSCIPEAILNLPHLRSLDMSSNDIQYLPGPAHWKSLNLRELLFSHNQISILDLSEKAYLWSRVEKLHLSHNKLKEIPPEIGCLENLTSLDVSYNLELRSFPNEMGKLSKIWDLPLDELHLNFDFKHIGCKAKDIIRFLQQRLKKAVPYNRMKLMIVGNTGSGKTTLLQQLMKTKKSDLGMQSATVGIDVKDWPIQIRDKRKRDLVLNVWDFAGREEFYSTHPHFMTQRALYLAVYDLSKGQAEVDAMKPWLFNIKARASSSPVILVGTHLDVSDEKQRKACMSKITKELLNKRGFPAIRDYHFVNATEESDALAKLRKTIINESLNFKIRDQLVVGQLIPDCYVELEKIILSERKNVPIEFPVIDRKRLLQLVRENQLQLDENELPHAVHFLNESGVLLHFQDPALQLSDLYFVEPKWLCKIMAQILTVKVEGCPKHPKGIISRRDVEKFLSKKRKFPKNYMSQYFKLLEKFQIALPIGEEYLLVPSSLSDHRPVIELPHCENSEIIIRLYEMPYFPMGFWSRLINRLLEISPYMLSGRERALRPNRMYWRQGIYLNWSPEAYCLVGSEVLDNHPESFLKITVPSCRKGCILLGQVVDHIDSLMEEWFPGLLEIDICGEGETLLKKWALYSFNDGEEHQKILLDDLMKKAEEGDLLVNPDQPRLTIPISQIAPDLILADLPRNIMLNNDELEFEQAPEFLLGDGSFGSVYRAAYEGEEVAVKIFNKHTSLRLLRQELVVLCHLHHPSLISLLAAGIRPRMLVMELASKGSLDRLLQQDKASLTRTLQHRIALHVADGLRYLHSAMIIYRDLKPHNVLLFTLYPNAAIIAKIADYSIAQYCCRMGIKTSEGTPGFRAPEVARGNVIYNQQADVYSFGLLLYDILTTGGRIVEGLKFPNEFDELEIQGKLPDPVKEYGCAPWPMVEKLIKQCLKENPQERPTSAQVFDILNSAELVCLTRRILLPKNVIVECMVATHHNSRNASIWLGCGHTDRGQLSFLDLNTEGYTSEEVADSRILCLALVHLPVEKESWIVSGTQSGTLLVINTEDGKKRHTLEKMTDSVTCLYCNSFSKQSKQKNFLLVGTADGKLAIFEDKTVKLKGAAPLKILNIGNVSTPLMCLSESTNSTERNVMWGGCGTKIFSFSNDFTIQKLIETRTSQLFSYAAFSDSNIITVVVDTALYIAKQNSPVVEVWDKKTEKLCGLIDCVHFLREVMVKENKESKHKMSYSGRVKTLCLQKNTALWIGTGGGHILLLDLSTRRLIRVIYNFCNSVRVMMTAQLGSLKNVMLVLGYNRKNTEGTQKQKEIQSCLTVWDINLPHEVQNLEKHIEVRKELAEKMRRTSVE

## Cc1nn(C2CCOC2)c2c1OC[C@@H]1CC[C@H]1Nc1nc(ncc1C(F)(F)F)N2 (stereo partly drawn) [Ex-2.74, (10aR,12aR)-1-methyl-3-((S)- or (10aR,12aR)-1-methyl-3-((R)-tetrahydrofuran-3-yl)-8-(trifluoromethyl)-3,4,10,10a,11,12,12a,13-octahydro-5,9-(azeno)cyclobuta[k]pyrazolo[4,3-b][1]oxa[4,6,10]triazacyclotridecine]
  LRRK2 pIC50: >10.09

## Cc1nn(C)c2c1OC[C@H]1CCC(C1)Nc1nc(ncc1C(F)(F)F)N2 [Ex-2.88, (5^1R,5^3S)-1^1,1^3-dimethyl-3^5-(trifluoromethyl)-1^1H-7-oxa-2,4-diaza-3(2,4)-pyrimidina-1(5,4)-pyrazola-5(1,3)-cyclopentanacycloheptaphane]
  LRRK2 pIC50: 7.64

## CC(C)c1n[nH]c2c1Nc1ncc(C(F)(F)F)c(n1)N[C@@H]1CC[C@H]1CO2 [Ex-1.22, (10aR,12aR)-3-isopropyl-8-(trifluoromethyl)-1,4,10,10a,11,12,12a,13-octahydro-5,9-(azeno)cyclobuta[k]pyrazolo[3,4-b][1]oxa[4,6,10]triazacyclotridecine]
  LRRK2 pIC50: >10.09

## CC(C)n1nc(C2C[C@@H]2C#N)c2c1Nc1ncc(C(F)(F)F)c(n1)N[C@@H]1COC[C@H]1CO2 (single isomer, unassigned) [Ex-2.45, (1S,2S)- or (1R,2R)-2-((10aS,13aS)-3-isopropyl-8-(trifluoromethyl)-3,4,10a,11,13a,14-hexahydro-10H,13H-5,9-(azeno)furo[3,4-k]pyrazolo[4,3-b][1]oxa[4,6,10]triazacyclotridecin-1-yl)cyclopropane-1-carbonitrile]
  LRRK2 pIC50: 8.32

## Cc1nn(C)c2c1OCC1CC[C@H]1Nc1nc(ncc1C(F)(F)F)N2 (stereo partly drawn) [Ex-2.13, (10aR,12aS)- or (10aS,12aR)-1,3-dimethyl-8-(trifluoromethyl)-3,4,10,10a,11,12,12a,13-octahydro-5,9-(azeno)cyclobuta[k]pyrazolo[4,3-b][1]oxa[4,6,10]triazacyclotridecine]
  LRRK2 pIC50: >10.09

## Cc1nn(C)c2c1CCC[C@@H](C)Nc1nc(ncc1C(F)(F)F)N2 (single isomer, unassigned) [Ex-11.1, (R)- or (S)-1,3,7-Trimethyl-10-(trifluoromethyl)-4,5,6,7,8,14-hexahydro-1H-9,13-(azeno)pyrazolo[4,3-l][1,3,7]triazacyclotridecine]
  LRRK2 pIC50: 8.49

## CC1CCOc2c(C(C)(C)C#N)nn(C3CCC3)c2Nc2ncc(C(F)(F)F)c(n2)N1 (single isomer, unassigned) [Ex-2.29, (R)- or (S)-butyl-7-methyl-10-(trifluoromethyl)-1,5,6,7,8,14-hexahydro-9,13-(azeno)pyrazolo[4,3-b][1]oxa[4,6,10]triazacyclotridecin-3-yl)-2-methylpropanenitrile]
  LRRK2 pIC50: 5.70

## CCOC(=O)C(C)(C)n1nc(C(C)C)c2c1OCC[C@@H](C)Nc1nc(ncc1C(F)(F)F)N2 [Ex-1.12, ethyl (R)-2-(3-isopropyl-11-methyl-8-(trifluoromethyl)-10,11,12,13-tetrahydro-5,9-(azeno)pyrazolo[3,4-b][1]oxa[4,6,10]triazacyclotridecin-1(4H)-yl)-2-methylpropanoate]
  LRRK2 pIC50: <5.00

## Cn1nc(C(F)(F)F)c2c1OCC1COC[C@H]1Nc1nc(ncc1C(F)(F)F)N2 (stereo partly drawn) [Ex-1.2, (10aS,13aS)-1-Methyl-3,8-bis(trifluoromethyl)-1,4,10a,11,13a,14-hexahydro-10H,13H-5,9-(azeno)furo[3,4-k]pyrazolo[3,4-b][1]oxa[4,6,10]triazacyclotridecine]
  LRRK2 pIC50: >10.09

## CC1CCOc2c(C3CC3)nn(C)c2Nc2ncc(C(F)(F)F)c(n2)N1 (single isomer, unassigned) [Ex-2.19, (R)- or (S)-3-cyclopropyl-1,7-dimethyl-10-(trifluoromethyl)-1,5,6,7,8,14-hexahydro-9,13-(azeno)pyrazolo[4,3-b][1]oxa[4,6,10]triazacyclotridecine]
  LRRK2 pIC50: 8.78

## Cc1nn(C2CCC2)c2c1OC1COC[C@@H]1CNc1nc(ncc1Cl)N2 (stereo partly drawn) [Ex-2.83, (11aR,14aR)- or (11aS,14aS) 8-chloro-3-cyclobutyl-1-methyl-3,4,10,11,11a,12,14,14a-octahydro-5,9-(azeno)furo[3,4-1]pyrazolo[4,3-b][1]oxa[4,6,10]triazacyclotridecine]
  LRRK2 pIC50: 5.76

## Cc1nn(C2CCC2)c2c1OC[C@@H]1COCC[C@H]1Nc1nc(ncc1C(F)(F)F)N2 [Ex-2.34, (4aR,16aS)- or (4aS,16aR)-12-cyclobutyl-14-methyl-7-(trifluoromethyl)-3,4,4a,5,11,12,16,16a-octahydro-1H-6,10-(azeno)pyrano[4,3-k]pyrazolo[4,3-b][1]oxa[4,6,10]triazacyclotridecine]
  LRRK2 pIC50: 8.00

## CC(C)(C#N)c1nn(C2CCC2)c2c1OC[C@@H]1COC[C@H]1Nc1nc(ncc1C(F)(F)F)N2 [Ex-2.48, 2-((10aS,13aS)-3-cyclobutyl-8-(trifluoromethyl)-3,4,10a,11,13a,14-hexahydro-10H,13H-5,9-(azeno)furo[3,4-k]pyrazolo[4,3-b][1]oxa[4,6,10]triazacyclotridecin-1-yl)-2-methylpropanenitrile]
  LRRK2 pIC50: >10.09

## Cn1cc(C2CC2c2nn(C3CCC3)c3c2OC[C@@H]2COC[C@H]2Nc2nc(ncc2C(F)(F)F)N3)cn1 (stereo partly drawn) [Ex-2.69, (10aS,13aS)-3-cyclobutyl-1-((1S,2S)- or (10aS,13aS)-3-cyclobutyl-1-((1R,2R)-2-(1-methyl-1H-pyrazol-4-yl)cyclopropyl)-8-(trifluoromethyl)-3,4,10a,11,13a,14-hexahydro-10H,13H-5,9-(azeno)furo[3,4-k]pyrazolo[4,3-b][1]oxa[4,6,10]triazacyclotridecine]
  LRRK2 pIC50: >10.09

## Cc1nn(C2CC2)c2c1OC[C@H]1CC[C@@H]1Oc1nc(ncc1C(F)(F)F)N2 [Ex-14.2, (10aR,13aS)- or (10aS,13aR)-3-Cyclopropyl-1-methyl-8-(trifluoromethyl)-3,4,10a,11,12a,13-hexahydro-12H-5,9-(azeno)cyclobuta[k]pyrazolo[4,3-b][1,10]dioxa[4,6]diazacyclotridecine]
  LRRK2 pIC50: 5.16

## O[C@@H]1COCC1n1nc(C2CC2)c2c1OC[C@H]1CC[C@@H]1Nc1nc(ncc1C(F)(F)F)N2 (single isomer, unassigned) [Ex-6.1, (3R,4S)-4-((10aR,12aR)- or (3R,4S)-4-((10aS,12aS)- or (3S,4R)-4-((10aR,12aR)- or (3S,4R)-4-((10aR,12aR)-3-cyclopropyl-8-(trifluoromethyl)-10,10a,11,12,12a,13-hexahydro-5,9-(azeno)cyclobuta[k]pyrazolo[3,4-b][1]oxa[4,6,10]triazacyclotridecin-1 (4H)-yl)tetrahydrofuran-3-ol]
  LRRK2 pIC50: 7.94

## Cn1nc(C2CC2)c2c1OCC1CCC1Nc1nc(ncc1C(F)(F)F)N2 [Ex-1.9, (10aR,12aS)- or (10aS,12aR)-3-cyclopropyl-1-methyl-8-(trifluoromethyl)-1,4,10,10a,11,12,12a,13-octahydro-5,9-(azeno)cyclobuta[k]pyrazolo-[3,4-b][1]oxa[4,6,10]triazacyclo-tridecine]
  LRRK2 pIC50: >10.09
